Test [1] deals with human SOS1 (loading of human K-Ras^G12C-GDP with fluorescent GTP-analog) (Homo sapiens, UniProt Q07889). The experiment in a line: Biochemical assay 3: K-Ras^G12C activation assay by hSOS1 (HTRF). Conditions: E-notation values; unit inferred; read-out: Assay 3 (KRAS-Activation) IC50. (Time-resolved FRET reads energy transfer from a long-lived donor to a nearby acceptor.)
Test [2] has as its target Epidermal Growth Factor Receptor (EGFR) (Homo sapiens (Human), UniProt P00533). The experiment in a line: EGFR kinase assay (TR-FRET). Type of test: biochemical. Conditions: E-notation values; unit inferred; read-out: EGFR-assay IC50. The method, boiled down: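 Read-out is the 665/620 nm HTRF ratio, from a Tb-cryptate anti-phosphotyrosine antibody and streptavidin-XL665 bound to phosphorylated biotin-peptide substrate. The enzyme, A431-derived EGFR (~3 U/ml), was given 15 min compound pre-binding at 22° C in Hepes pH 7.0 with Mg2+/Mn2+ before reaction.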

pIC50: −log10 of the molar value. A value given as a limit tells only on which side of the number the result lay.

These results are taken from patent US20240083857A1, “2-Methyl-Quinazolines” (Bayer Pharma Aktiengesellschaft, priority 2017, published 2024).

Epidermal Growth Factor Receptor (EGFR), sequence (P00533 25-1210): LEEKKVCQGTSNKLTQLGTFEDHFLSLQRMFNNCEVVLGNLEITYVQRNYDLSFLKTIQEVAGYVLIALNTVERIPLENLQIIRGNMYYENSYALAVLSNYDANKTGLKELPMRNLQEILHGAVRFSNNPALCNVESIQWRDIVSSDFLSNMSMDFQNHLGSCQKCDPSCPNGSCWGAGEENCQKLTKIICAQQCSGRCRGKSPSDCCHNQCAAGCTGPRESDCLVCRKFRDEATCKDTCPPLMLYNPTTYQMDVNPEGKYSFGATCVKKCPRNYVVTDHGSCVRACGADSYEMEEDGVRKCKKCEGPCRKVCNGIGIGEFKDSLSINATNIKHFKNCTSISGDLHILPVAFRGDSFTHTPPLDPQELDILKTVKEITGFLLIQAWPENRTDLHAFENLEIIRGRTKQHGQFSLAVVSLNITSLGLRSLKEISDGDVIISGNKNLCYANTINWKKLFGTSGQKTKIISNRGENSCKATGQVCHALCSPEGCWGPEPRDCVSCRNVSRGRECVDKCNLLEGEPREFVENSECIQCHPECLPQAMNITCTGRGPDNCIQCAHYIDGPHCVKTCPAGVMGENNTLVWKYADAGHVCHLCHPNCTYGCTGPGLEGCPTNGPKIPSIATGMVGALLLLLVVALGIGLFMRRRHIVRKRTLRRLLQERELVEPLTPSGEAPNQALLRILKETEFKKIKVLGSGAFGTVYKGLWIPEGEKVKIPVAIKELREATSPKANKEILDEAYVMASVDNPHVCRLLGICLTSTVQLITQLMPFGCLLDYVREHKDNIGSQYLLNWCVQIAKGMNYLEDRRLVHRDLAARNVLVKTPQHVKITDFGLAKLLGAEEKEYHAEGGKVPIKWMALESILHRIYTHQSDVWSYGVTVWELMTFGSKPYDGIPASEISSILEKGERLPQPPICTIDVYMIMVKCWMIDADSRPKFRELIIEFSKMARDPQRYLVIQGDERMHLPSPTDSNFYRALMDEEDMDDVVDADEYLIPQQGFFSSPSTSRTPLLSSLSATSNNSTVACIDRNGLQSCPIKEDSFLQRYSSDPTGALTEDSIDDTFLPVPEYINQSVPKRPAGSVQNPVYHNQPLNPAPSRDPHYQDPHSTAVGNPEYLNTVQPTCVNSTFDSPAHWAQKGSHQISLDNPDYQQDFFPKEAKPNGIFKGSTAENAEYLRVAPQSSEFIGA

What is called pIC50 is the negative decadic logarithm of the IC50, by convention in mol/L. With `Cc1nc(NC(C)c2ccc(-c3ccccc3CN(C)C)s2)c2cc(N3CCN(Cc4ccccc4)C(=O)C3)ccc2n1` (centres unmarked) [Example 458, 1-benzyl-4-(4-{[1-(5-{2-[(dimethylamino)methyl]phenyl}thiophen-2-yl)ethyl]amino}-2-methylquinazolin-6-yl)piperazin-2-one], the pIC50 was 7.34 in test [1] and below 4.70 in test [2].
